Measured values reported in US9932331B2, “Phenyl tetrahydroisoquinoline compound substituted with heteroaryl” (TAISHO PHARMACEUTICAL CO., LTD, priority 2014, dated 2018).
Where a name gives a salt, the structure may show the parent alone.

Key:
[1] = target: T1, human NHE3 (Homo sapiens, UniProt P48764); assay: NHE3 inhibition test (recovery of intracellular pH in cell line stably expressing human NHE3); format: cell-based; conditions: OK cells deficient in endogenous NHE stably expressing human NHE3; BCECF fluorescence, initial rate of pH recovery; read-out: human NHE3 inhibitory activity IC50
T1 sequence (P48764 26-834): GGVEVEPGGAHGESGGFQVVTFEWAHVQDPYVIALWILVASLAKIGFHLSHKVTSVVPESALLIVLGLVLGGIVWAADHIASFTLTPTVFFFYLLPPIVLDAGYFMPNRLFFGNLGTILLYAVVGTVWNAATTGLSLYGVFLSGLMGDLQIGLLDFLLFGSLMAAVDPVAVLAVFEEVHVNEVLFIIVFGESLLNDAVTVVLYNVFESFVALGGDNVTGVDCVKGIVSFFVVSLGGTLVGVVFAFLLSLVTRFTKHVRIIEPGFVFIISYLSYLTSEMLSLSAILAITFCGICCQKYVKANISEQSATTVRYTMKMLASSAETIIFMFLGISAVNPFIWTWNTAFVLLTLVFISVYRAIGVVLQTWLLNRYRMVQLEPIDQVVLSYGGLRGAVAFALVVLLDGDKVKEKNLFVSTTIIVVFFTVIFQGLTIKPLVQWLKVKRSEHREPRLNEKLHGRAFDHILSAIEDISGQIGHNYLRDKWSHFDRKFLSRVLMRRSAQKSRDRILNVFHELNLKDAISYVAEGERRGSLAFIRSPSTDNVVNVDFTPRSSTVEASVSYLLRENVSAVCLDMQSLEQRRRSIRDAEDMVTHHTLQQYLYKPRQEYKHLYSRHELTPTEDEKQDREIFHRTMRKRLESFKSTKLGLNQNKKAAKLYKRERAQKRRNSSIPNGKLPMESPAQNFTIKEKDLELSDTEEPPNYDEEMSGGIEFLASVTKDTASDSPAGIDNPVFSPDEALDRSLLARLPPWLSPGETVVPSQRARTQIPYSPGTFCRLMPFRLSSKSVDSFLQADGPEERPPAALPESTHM
How it was run: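 IC50 is the concentration halving the initial rate of Na-triggered intracellular pH recovery, tracked by BCECF fluorescence, in NH4Cl-acidified cells. Cells: NHE-deficient OK line stably transfected with human NHE3; compound added in Na-free pH 7.4 buffer.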

[2] = tested on: SD rat; assay: 32P-phosphate oral loading test using SD rat (phosphorus absorption inhibitory effect); format: in vivo; conditions: Rattus norvegicus, 0.5 h; SD male rats, oral dose 3 mg/kg; plasma radioactivity 30 minutes after 32P-phosphate solution, vs control group; read-out: Rate of inhibition of phosphate absorption
Description: Phosphorus Absorption Inhibitory Effect of the Compound of the Present Invention in ^32P-Phosphate Oral Loading Test Using SD Rat
8-week-old SD male rats (Japan SLC, Inc.) were used as laboratory animals. Each test compound was suspended or dissolved at a concentration of 0.2 mg/mL or 0.6 mg/mL in Japanese Pharmacopoeia water for injection (manufactured by Hikari Pharmaceutical Co., Ltd.) and orally administered to each rat at a dose of 5 ml/kg body weight. Japanese Pharmacopoeia water for injection was administered at the same dose as above to a control group. 5 minutes after the administration of the test compound or water for injection, a phosphate solution (1.3 mM NaH2PO4) containing 32P-phosphate (PerkinElmer Inc.) was administered thereto at a dose of 5 ml/kg. 30 minutes after the administration of the phosphate solution, blood was collected from the tail vein, and the blood sample was immediately mixed with EDTA-2K (manufactured by Dojindo Laboratories). Then, the mixture was centrifuged at 3000 rpm at 4° C. for 10 minutes to recover plasma.
The radioactivity in 100 μL of the plasma was measured using a liquid scintillation counter and used as a phosphate absorption count. The radioactivity in the plasma of the control group was used as a control, and the rate of inhibition of phosphate absorption was determined according to the following expression: Rate of inhibition of phosphate absorption (%)=(1−Phosphate absorption count of the test compound administration group/Phosphate absorption count of the control group)×100 (2) Results

## CN1Cc2c(Cl)cc(Cl)cc2[C@H](c2cccc(-c3cncc(NCCOCCOCCNC(=O)CCC(=O)NCCOCCOCCNc4cncc(-c5cccc([C@@H]6CN(C)Cc7c(Cl)cc(Cl)cc76)c5)n4)n3)c2)C1 [Example 8-6, N,N′-Bis[2-(2-{2-[(6-{3-[(4S)-6,8-dichloro-2-methyl-1,2,3,4-tetrahydroisoquinolin-4-yl]phenyl}pyrazin-2-yl)amino]ethoxy}ethoxy)ethyl]butanediamide pentahydrochloride]
[1]
  IC50: 15.5 nM
[2]
  inhibition in vivo at 3 mg/kg: 26%

## CN1Cc2c(Cl)cc(Cl)cc2[C@H](c2cccc(-c3cc(OCCOCCOCCOCCNC(=O)[C@H](O)[C@@H](O)C(=O)NCCOCCOCCOCCOc4cc(-c5cccc([C@@H]6CN(C)Cc7c(Cl)cc(Cl)cc76)c5)ncn4)ncn3)c2)C1 [Example 8-17, (2R,3R)-N,N′-Bis{2-[2-(2-{2-[(6-{3-[(4S)-6,8-dichloro-2-methyl-1,2,3,4-tetrahydroisoquinolin-4-yl]phenyl}pyrimidin-4-yl)oxy]ethoxy}ethoxy)ethoxy]ethyl}-2,3-dihydroxybutanediamide hydrochloride]
[1]
  IC50: 2.5 nM
[2]
  inhibition in vivo at 3 mg/kg: 18%

## CN1Cc2c(Cl)cc(Cl)cc2[C@H](c2cccc(-c3cc(NCCOCCOCCOCCNC(=O)NCCCCNC(=O)NCCOCCOCCOCCNc4cnnc(-c5cccc([C@@H]6CN(C)Cc7c(Cl)cc(Cl)cc76)c5)c4)cnn3)c2)C1 [Example 7-19, 1,1′-Butane-1,4-diylbis(3-{2-[2-(2-{2-[(6-{3-[(4S)-6,8-dichloro-2-methyl-1,2,3,4-tetrahydroisoquinolin-4-yl]phenyl}pyridazin-4-yl)amino]ethoxy}ethoxy)ethoxy]ethyl}urea) hexahydrochloride]
[1]
  IC50: 17.7 nM
[2]
  inhibition in vivo at 3 mg/kg: 19%

## CN1Cc2c(Cl)cc(Cl)cc2[C@H](c2cccc(-c3cn(CCOCCOCCOCCOCCNC(=O)[C@@H](O)[C@H](O)[C@H](O)[C@@H](O)C(=O)NCCOCCOCCOCCOCCn4cc(-c5cccc([C@@H]6CN(C)Cc7c(Cl)cc(Cl)cc76)c5)nn4)nn3)c2)C1 [Example 6-11, (2R,3S,4R,5S)—N,N′-Bis[14-(4-{3-[(4S)-6,8-dichloro-2-methyl-1,2,3,4-tetrahydroisoquinolin-4-yl]phenyl}-1H-1,2,3-triazol-1-yl)-3,6,9,12-tetraoxatetradec-1-yl]-2,3,4,5-tetrahydroxyhexanediamide hydrochloride]
[1]
  IC50: 1.4 nM
[2]
  inhibition in vivo at 3 mg/kg: 33%

## CN1Cc2c(Cl)cc(Cl)cc2[C@@H](c2cccc(-c3cn(CCOCCOCCOCCOCCOCCNC(=O)[C@H](O)[C@@H](O)[C@@H](O)[C@H](O)C(=O)NCCOCCOCCOCCOCCOCCn4cc(-c5cccc([C@@H]6CN(C)Cc7c(Cl)cc(Cl)cc76)c5)nn4)nn3)c2)C1 [Example 6-12, (2R,3S,4R,5S)—N-[17-(4-{3-[(4R)-6,8-Dichloro-2-methyl-1,2,3,4-tetrahydroisoquinolin-4-yl]phenyl}-1H-1,2,3-triazol-1-yl)-3,6,9,12,15-pentaoxaheptadec-1-yl]-N′-[17-(4-{3-[(4S)-6,8-dichloro-2-methyl-1,2,3,4-tetrahydroisoquinolin-4-yl]phenyl}-1H-1,2,3-triazol-1-yl)-3,6,9,12,15-pentaoxaheptadec-1-yl]2,3,4,5-tetrahydroxyhexanediamide hydrochloride]
[1]
  IC50: 2.3 nM
[2]
  inhibition in vivo at 3 mg/kg: 37%

## CN1Cc2c(Cl)cc(Cl)cc2[C@H](c2cccc(-c3cn(CCOCCOCCOCCNC(=O)NCCOCCOCCNC(=O)NCCOCCOCCOCCn4cc(-c5cccc([C@@H]6CN(C)Cc7c(Cl)cc(Cl)cc76)c5)nn4)nn3)c2)C1 [Example 7-26, 1,1′-[Ethane-1,2-diylbis(oxyethane-2,1-diyl)]bis {3-[2-(2-{2-[2-(4-{3-[(4S)-6,8-dichloro-2-methyl-1,2,3,4-tetrahydroisoquinolin-4-yl]phenyl}-1H-1,2,3-triazol-1-yl)ethoxy]ethoxy}ethoxy)ethyl]urea}hydrochloride]
[1]
  IC50: 5.2 nM

## CN1Cc2c(Cl)cc(Cl)cc2[C@H](c2cccc(-c3nn[nH]n3)c2)C1 [Example 2-1, (4S)-6,8-dichloro-2-methyl-4-[3-(2H-tetrazol-5-yl)phenyl]-1,2,3,4-tetrahydroisoquinoline]
[1]
  IC50: 89.3 nM

## Cc1cc(-c2cccc([C@@H]3CN(C)Cc4c(Cl)cc(Cl)cc43)c2)sn1 [Example 1-19, (4S)-6,8-Dichloro-2-methyl-4-[3-(3-methyl-1,2-thiazol-5-yl)phenyl]-1,2,3,4-tetrahydroisoquinoline hydrochloride]
[1]
  IC50: 856 nM

## CN1Cc2c(Cl)cc(Cl)cc2[C@H](c2cccc(-c3cncnc3)c2)C1 [Example 1-10, (4S)-6,8-Dichloro-2-methyl-4-[3-(pyrimidin-5-yl)phenyl]-1,2,3,4-tetrahydroisoquinoline trifluoroacetate]
[1]
  IC50: 169 nM

## CN1Cc2c(Cl)cc(Cl)cc2[C@H](c2cccc(-c3ncccn3)c2)C1 [Example 1-16, (4S)-6,8-Dichloro-2-methyl-4-[3-(pyrimidin-2-yl)phenyl]-1,2,3,4-tetrahydroisoquinoline trifluoroacetate]
[1]
  IC50: 184 nM

## COc1cc(-c2cccc([C@@H]3CN(C)Cc4c(Cl)cc(Cl)cc43)c2)ccn1 [Example 1-11, (4S)-6,8-Dichloro-4-[3-(2-methoxypyridin-4-yl)phenyl]-2-methyl-1,2,3,4-tetrahydroisoquinoline trifluoroacetate]
[1]
  IC50: 1600 nM

## CN1Cc2c(Cl)cc(Cl)cc2[C@H](c2cccc(-c3cn(C)cn3)c2)C1 [Example 1-18, (4S)-6,8-Dichloro-2-methyl-4-[3-(1-methyl-1H-imidazol-4-yl)phenyl]-1,2,3,4-tetrahydroisoquinoline]
[1]
  IC50: 95.7 nM

## Cc1nc(-c2cccc([C@@H]3CN(C)Cc4c(Cl)cc(Cl)cc43)c2)no1 [Example 4-1, (4S)-6,8-Dichloro-2-methyl-4-[3-(5-methyl-1,2,4-oxadiazol-3-yl)phenyl]-1,2,3,4-tetrahydroisoquinoline hydrochloride]
[1]
  IC50: 554 nM

## Cc1cc(-c2cccc([C@@H]3CN(C)Cc4c(Cl)cc(Cl)cc43)c2)on1 [Example 5-1, (4S)-6,8-Dichloro-2-methyl-4-[3-(3-methyl-1,2-oxazol-5-yl)phenyl]-1,2,3,4-tetrahydroisoquinoline hydrochloride]
[1]
  IC50: 760 nM

## CN1Cc2c(Cl)cc(Cl)cc2[C@H](c2cccc(-c3cc(OCCOCCOCCNC(=O)Nc4ccc(NC(=O)NCCOCCOCCOc5cc(-c6cccc([C@@H]7CN(C)Cc8c(Cl)cc(Cl)cc87)c6)ncn5)cc4)ncn3)c2)C1 [Example 7-11, 1,1′-Benzene-1,4-diylbis {3-[2-(2-(2-{2-[(6-{3-[(4S)-6,8-dichloro-2-methyl-1,2,3,4-tetrahydroisoquinolin-4-yl]phenyl}pyrimidin-4-yl)oxy]ethoxy}ethoxy)ethyl]urea} trifluoroacetate]
[1]
  IC50: 33.5 nM

## CN1Cc2c(Cl)cc(Cl)cc2[C@H](c2cccc(-c3nnn(CCOCCOCCOCCNC(=O)[C@@H](O)[C@H](O)[C@H](O)[C@@H](O)C(=O)NCCOCCOCCOCCn4nnc(-c5cccc([C@@H]6CN(C)Cc7c(Cl)cc(Cl)cc76)c5)n4)n3)c2)C1 [Example 8-25, (2R,3S,4R,5S)-N,N′-Bis[2-(2-{2-[2-(5-{3-[(4S)-6,8-dichloro-2-methyl-1,2,3,4-tetrahydroisoquinolin-4-yl]phenyl}-2H-tetrazol-2-yl)ethoxy]ethoxy}ethoxy)ethyl]-2,3,4,5-tetrahydroxyhexanediamide hydrochloride]
[1]
  IC50: 0.2 nM

## CN1Cc2c(Cl)cc(Cl)cc2C(c2cccc(-c3cn(C)nn3)c2)C1 (stereo not shown) [Example 1-8, 6,8-Dichloro-2-methyl-4-[3-(1-methyl-1H-1,2,3-triazol-4-yl)phenyl]-1,2,3,4-tetrahydroisoquinoline]
[1]
  IC50: 126 nM
